Reference: paper PMC5073322, “Novel Natural Product-like Caged Xanthones Bearing a Carbamate Moiety Exhibit Antitumor Potency and Anti-Angiogenesis Activity In vivo” (Scientific Reports, 2016)

Assays:
Water solubility by HPLC = assay type: physicochemical; settings: deionized water, stirred overnight, HPLC 290 nm
Source text: The physicochemical characteristics of compounds directly determine their potential drug-like properties. Assessing a compound’s physicochemical properties before performing in vivo evaluations can guide further studies and minimize the time and cost associated with drug discovery. Therefore, parallel to the in vivo study, these solubilities of these compounds in water were experimentally measured using high-performance liquid chromatography (HPLC). Based on the results of full wave scanning, 290 nm was chosen as the maximum absorption wavelength for HPLC detection.
A HPLC system with an ultraviolet (UV) detector was used to detect the solubility of the compounds. The optimal wavelength was 290 nm. Ethanol/water (85:15) was an efficient eluent at a flow rate of 0.5 mL/min. The compounds were stirred in deionized water overnight to maximize the retention of the compounds in solution. Then, the solutions were filtered and the supernatant was used as a fluid sample for HPLC detection. The permeability (Pe) of some of the compounds was tested with the help of a standard PAMPA (pION), as previously reported. PAMPA was performed on a PAMPA Explorer instrument (pION, Inc., Woburn, MA) with the PAMPA Explorer command software (Version 3.7.4.1). The compounds were diluted to 10 mM with the system solution buffer (pH 7.4). Then, 150 μL of the diluted compound solution was transferred to a UV plate, and the UV spectrum was collected and used as a reference. Then, paint the membrane with 5 μL of gastrointestinal tract (GIT) lipid. The acceptor chamber was filled with 200 μL of acceptor solution buffer, and the donor chamber was filled with 200 μL of diluted compound solution. The PAMPA sandwich was assembled and left at 25 °C for 4 h. The UV spectra (240–500 nm) from the donor and the acceptor were collected. The permeability coefficient was calculated with the PAMPA Explorer Command software (Version 3.7.4.1) based on the area under the curve (AUC) of the reference plate, the donor plate, and the acceptor plate. The permeability coefficient of the compound was tested for four times, and the data are shown as the average values. Ketoprofen (4.5×10^−6 cm/s) and propranolol (112.8×10^−6 cm/s) were used as the standards in this assay.

HepG2 tumours = assay: HepG2 hepatoblastoma xenograft in nude mice; assay type: in vivo; settings: 20 days; for inhibition of the tumour volume: IV, twice-daily
Description: Given the in vitro anti-tumour cell activity of 8n, we continued to evaluate its in vivo effect in hepatoblastoma xenograft models using previously reported methods, and the water-soluble anti-cancer drug 5-fluorouracil (5-FU) was used as a positive control. After tumours were established, the mice were IV injected with 2.5, 5, 10 or 50 mg/kg 8n; the lead compound DDO-6101 and antitumour drug 5-FU were used as controls. All mice had normal weights and quality of life in in vivo tests. […] The in vivo activity of 8n was also evaluated after oral administration. […] This observation may be attributed to the improved physicochemical properties of 8n compared to those of DDO-6101, such as aqueous solubility and cell membrane permeability, which were provided by modification with the carbamate moiety.
Figure 7 (A) The tumour diameters were measured and used to calculate the tumour volumes. The HepG2 xenograft-bearing mice were intravenously injected with 2.5, 5, 10 and 50 mg/kg 8n for 20 days. (B) After 20 days, mice were sacrificed and the individual tumours were weighed. *p < 0.05, […]; Student’s t-test (n = 6). (C) The tumour diameters were measured and used to calculate the tumour volumes. The HepG2 xenograft-bearing mice were orally administered 50 mg/kg 8n, 50 mg/kg DDO-6101 or 10 mg/kg 5-FU for 20 days.
All studies were performed in compliance with the relevant guidelines and regulations. Tumours on female nude mice were established by injecting 1×10^7 HepG2 cells on the dorsal surface. After four weeks, tumours of approximately 150 mm^3 were cut into pieces that were 3 mm×3 mm×3 mm in size and were then implanted in the dorsal surface of other female nude mice. One week later, mice implanted with xenografts of 100 mm^3 were selected, randomized, and […] injected with 2.5, 5, or 10-mg/kg 8n or vehicle daily for another three weeks. The tumour dimensions were measured daily with vernier calipers, and the tumour volumes were calculated using the formula: volume = (width)^2 × length/2.

HUVECs [1] = assay: Tube formation assay; assay type: cell-based, human; settings: Matrigel
Description: (§1) GA was reported to inhibit tumour angiogenesis and may be a viable drug candidate for anti-angiogenesis and anticancer therapies. Therefore, the anti-angiogenesis activity of the caged xanthone derivative 8n was evaluated. Human umbilical vein endothelial cells (HUVECs) were used in all experiments. Cell migration is critical for endothelial cells to form blood vessels during angiogenesis, tumour growth and metastasis. […] Endothelial cell invasion is a critical part of angiogenesis; therefore, a transwell assay was performed to evaluate the ability of inactivated HUVECs to pass through the transwell membrane barrier in the presence of 8n.
Figure 8 8n had anti-angiogenesis activity in vitro and in vivo. (A) A wound-healing assay was used to evaluate the motility of HUVECs after treatment with 8n for 24 h. (B) Changes in cell motility were evaluated using a transwell assay of cell migration and invasion. (C) The effect of 8n on tube formation by HUVECs. […] (D) Zebrafish embryos treated with blank control or 1, 10, or 50 μg/ml of 8n.
The tube formation assay was performed as previously reported with some modifications. A 48-well cell culture plate and the tips used were pre-chilled at −20 °C for 10 mins and then carefully coated with Matrigel (200 μL/well; Becton Dickinson, Bedford, MA, USA). Caution was taken to avoid bubbles. […]

HUVECs [2] = assay: Transwell invasion assay; assay type: cell-based, human; settings: 0.25 μM
Description: as §1
Figure 8 8n had anti-angiogenesis activity in vitro and in vivo. (A) A wound-healing assay was used to evaluate the motility of HUVECs after treatment with 8n for 24 h. (B) Changes in cell motility were evaluated using a transwell assay of cell migration and invasion. (C) The effect of 8n on tube formation by HUVECs. HUVECs were incubated with 8n for 6 h and then transferred to Matrigel for 6 h. (D) Zebrafish embryos treated with blank control or 1, 10, or 50 μg/ml of 8n.
A transwell migration assay was performed as previously described with minor modifications. HUVECs (4×10^4 cells per well) with compound 8n were seeded in the top of transwells (Corning Incorporated) and allowed to migrate for 4 h at 37 °C, 5% CO2 and 1% O2. […]

CC(C)=CCC12OC(C)(C)C3CC(C=C4C(=O)c5c(OC(=O)N6CCC(N7CCCCC7)CC6)cccc5OC431)C2=O (stereo not shown) [Compound 8n]
S, water solubility (Water solubility by HPLC): >40 mM
inhibition of the tumour volume (HepG2 tumours; 2.5 mg/kg): 27.97%
inhibition of the tumour volume (HepG2 tumours; 5 mg/kg): 38.50%
inhibition of the tumour volume (HepG2 tumours; 10 mg/kg): 48.36%
inhibition of tumour growth (HepG2 tumours; 50 mg/kg, oral, daily): 30.12%
tube-forming ability of HUVECs (HUVECs [1]): significantly impaired
invasion of inactivated HUVECs (HUVECs [2]): almost completely inhibited
